Measured values as given in EP1967193A1, “Enhancement of anticancer therapy by flavonoids” (Vrije Universiteit Medisch Centrum (VUMC), priority 2007, dated 2008).
Where “and” joins values, the source holds several entries; their conditions need not be identical. Identical values can stand only once. Entries after “also recorded” stand apart in the source; their conditions may differ.

Key:
[1] = system: STS; conditions: STS patients without prior chemotherapy; DOX alone; cited from earlier work
[2] = system: cardiomyocytes; conditions: cited from earlier work
[3] = system: cardiomyocytes; assay: Phase II study: endomyocardial biopsy scored by electron microscopy for DOX-induced cardiotoxicity; assay type: in vivo, human; conditions: for Biopsy score cum.dose/Δt/grade: left ventricle; for Cum.dose / biopsy score / LVEF: biopsy score: second biopsy
Experimental: In this example, we evaluated the cardioprotective properties of monoHER given as a 10 minute i.v infusion at a dose of 1500 mg/m^2 in patients with metastatic cancer treated with DOX. For the early detection of DOX-induced cardiotoxicity endomyocardial biopies were taken, because of its high sensitivity and high specificity (18).
(§1) MonoHER was administered as a 10 min intravenous infusion at a dose of 1500 mg/m^2 60 min before every DOX administration. If cardiotoxicity would be observed in the first three evaluable patients, administration according to this dosing scheme would be changed and the following patients would receive DOX infusion either immediately after monoHER (because in plasma and heart Cmax of monoHER is obtained immediately after the end of infusion (17, 19)) or with an interval of 2 hours (to give monoHER the opportunity to convert into an active metabolite, if any).
(§2) After a cumulative dose of 300 mg/m^2 DOX an endomyocardial biopsy was performed and measurement of the LVEF was repeated. The latter was also done at least 3 weeks after the last dose of DOX and a biopsy was repeated if possible. For logistic reasons, the biopsy of patient #8 was done after a cumulative dose of 375 mg/m^2 DOX.
During a left heart catheterization, a 104 cm, 7 french biopsy forceps was used to obtain tissue from the left ventricle. Three to four specimens 0.5 to 1 mm in diameter were obtained. The specimens were fixed in 4% buffered formaldehyde and prepared for electron microscopy.
After fixation in 4% buffered formaldehyde, the heart tissue was post fixed in 1% osmium tetroxide. The tissue was then dehydrated through a graded series of ethanol solutions of 70-95% and embedded in JB-4 Plus resin. Thereafter, 0.5-3.0 µm thick sections were cut with a glass knife. These semithin sections were processed for electron microscopy. Cardiomyocytes with more than 2 microvacuoles, macrovacuoles and/or loss of myofibrils were counted as deviant. The morphological grade determined from the specimens examined by electron microscopy was scored on a 6-point scale previously described by Billingham and Bristow (20, 21): in grade 0 cells are normal; in grade 1, 1.5, 2 and 2.5 deviant cells are < 5%, 5-15%, 16 - 25 % and 26 - 35%, respectively; in grade 3 cell damage is present in more than 35% of cells.

[4] = Phase II study: monitoring of cardiac function (LVEF, ECG); assay type: in vivo, human
Experimental: (§3) Before starting the study patients were evaluated by a full blood count, serum biochemistry including liver function tests, lactate dehydrogenase (LDH) and cholesterol. Risk factors for cardiovascular disease were also evaluated. An LVEF and an ECG were performed before entry into the study.
(§4) Every subsequent administration of monoHER and DOX was preceded by a full blood count, liver enzymes, serum creatinine and a routine 12-lead ECG. A complete blood count was also done 10 days after the chemotherapy.
as §2
Patients went off study in case of progressive disease, a serious cardiac event, or other events that precluded further treatment. Criteria described by Shapiro et al. (22) were used for diagnosis of cardiac events. Episodes of cardiac dysfunction were characterized according to the New York Heart Association functional classification (23).

[5] = system: metastatic solid tumors; assay: Phase II study: assessment of tumor response by CT-scan, ECOG criteria; assay type: in vivo, human; set-up: key to Response on dox: PD = progressive disease; PR = partial remission; SD = stabile disease; conditions: for partial remission maintained, time after the start of chemotherapy: maintained up to the present
Experimental: Patients with metastatic solid tumors were entered when they received a DOX-based chemotherapy regimen with a dosage of DOX ≥ 50 mg/m^2/ cycle and an infusion duration ≤ 1 hour. […] The left ventricular ejection fraction (LVEF) was > 50%. Patients were excluded if they had received prior anthracyclines, had prior or actual cardiovascular disease or had prior radiotherapy to the mediastinum.
as §1
Assessment of tumor response was done every 2-3 cycles by CT-scan, using standard ECOG criteria (24).

[6] = system: doxorubicin-induced chronic cardiotoxicity; conditions: preclinical, cited from earlier work
[7] = Phase II study: adverse events and laboratory monitoring; assay type: in vivo, human
Experimental: as §1, §3, §4

[8] = cited from earlier work
[9] = Detection of metabolites of monoHER
[10] = patient 03, cum. dose 480 mg/m^2 DOX
[11] = patient 04, cum. dose 450 mg/m^2 DOX

For `COc1cccc2c1C(=O)c1c(O)c3c(c(O)c1C2=O)C[C@@](O)(C(=O)CO)C[C@@H]3O[C@H]1C[C@H](N)[C@H](O)[C@H](C)O1` [DOX, doxorubicin], the “objective responses on DOX” value [1] is listed as “approximately 25%”, the “patients with anthracycline-induced myocardial damage” value ([2]; cumulative DOX doses of 240 mg/m^2, data of Billingham et al.) is listed as “nearly all patients” and the “biopsy score expected after DOX alone” value ([2]; cumulative dose of 300 mg/m^2 DOX, linear regression analysis of Torti et al., right ventricle) is listed as 1.4.

For `C[C@@H]1O[C@@H](OC[C@H]2O[C@@H](Oc3c(-c4ccc(O)c(O)c4)oc4cc(OCCO)cc(O)c4c3=O)[C@H](O)[C@@H](O)[C@@H]2O)[C@H](O)[C@H](O)[C@H]1O` [monoHER, 7-monohydroxyethylrutoside], the “mean biopsy score according to Billingham” value ([3]; 5 patients, median cumulative dose 300 mg/m2 DOX, monoHER 1500 mg/m^2 before DOX) was 2.7, the “cardioprotective effect against DOX-induced cardiotoxicity” value ([3]; five patients with biopsy, monoHER 1500 mg/m^2) was “no cardioprotective effect; also recorded: did not protect against DOX-induced cardiotoxicity” and the “Biopsy score cum.dose/Δt/grade” value ([3]; patient 03, cum. dose 300 mg/m^2 DOX, Δt 60 min after monoHER 1500 mg/m^2) was 300 / 60 / Grade 3 (in grade 3 cell damage is present in more than 35% of cells). The “Cum.dose / biopsy score / LVEF: biopsy score” value [3, 10] was 3 (in grade 3 cell damage is present in more than 35% of cells), the “Cum.dose / biopsy score / LVEF: biopsy score” value [3, 11] was 2.5 (in grade 1, 1.5, 2 and 2.5 deviant cells are < 5%, 5-15%, 16 - 25 % and 26 - 35%, respectively) and the “Biopsy score 10 months after last cycle” value ([3]; patient 04, third biopsy) was 2 (in grade 1, 1.5, 2 and 2.5 deviant cells are < 5%, 5-15%, 16 - 25 % and 26 - 35%, respectively). The “Biopsy score cum.dose/Δt/grade” value ([3]; patient 06, cum. dose 300 mg/m^2 DOX, Δt 60 min after monoHER 1500 mg/m^2) was 300 / 60 / Grade 2.5 (in grade 1, 1.5, 2 and 2.5 deviant cells are < 5%, 5-15%, 16 - 25 % and 26 - 35%, respectively), the “Biopsy score cum.dose/Δt/grade” value ([3]; patient 07, cum. dose 300 mg/m^2 DOX, Δt 10 min after monoHER 1500 mg/m^2) was 300 / 10 / Grade 3 (in grade 3 cell damage is present in more than 35% of cells) and the “Biopsy score cum.dose/Δt/grade” value ([3]; patient 08, cum. dose 375 mg/m^2 DOX, Δt 120 min after monoHER 1500 mg/m^2) was 375 / 120 / Grade 3 (in grade 3 cell damage is present in more than 35% of cells). For the same molecule, the “microvacuoles present in % of the cardiomyocytes” value ([3]; patient #3, after 300 mg/m^2 DOX, monoHER 60 min before DOX) was 52%, the “microvacuoles present in % of the cardiomyocytes” value ([3]; patient #4, after 300 mg/m^2 DOX, monoHER 60 min before DOX) was 20% and the “cardiomyocytes with > 2 small vacuoles per cardiomyocyte” value ([3]; patient #6, after 300 mg/m^2 DOX, monoHER 60 min before DOX) was 33%. For the same molecule, the “microvacuolization in % of the cardiomyocytes” value ([3]; patient #7, DOX immediately after monoHER) was 60%, the “microvacuolization in % of the cardiomyocytes” value ([3]; patient #8, DOX 2 h after monoHER) was 49% and the “patients in whom the LVEF decreased” value ([4]; after 300-375 mg/m^2 DOX, no LVEF information for patient #6) was 4/5. The ECG during therapy ([4]; all patients) was “remained unchanged”, the cardiac dysfunction ([4]; all patients, during therapy) was “no cardiac dysfunction occurred” and the “LVEF 10 months after last cycle” value ([4]; patient 03) was “ND / 51%”. The “LVEF after ≥ 300 mg/m^2” value ([4]; patient 03, LVEF before dox 71%, Δt 60 min) was 67%, the “Cum.dose / biopsy score / LVEF: LVEF” value [4, 10] was 53% and the “LVEF 10 months after last cycle” value ([4]; patient 04) was 62%. The “LVEF after ≥ 300 mg/m^2” value ([4]; patient 04, LVEF before dox 72%, Δt 60 min) was 60%, the “Cum.dose / biopsy score / LVEF: LVEF” value [4, 11] was 66% and the “LVEF after ≥ 300 mg/m^2” value ([4]; patient 07, LVEF before dox 75%, Δt 10 min) was 63%. For the same molecule, the “LVEF after ≥ 300 mg/m^2” value ([4]; patient 08, LVEF before dox 65%, Δt 120 min, 375 mg/m^2 DOX) was 63%, the “decline of LVEF compared to the ejection fraction before start of the study” value ([4]; patient #3, after 480 mg/m2 DOX, 71% to 53%) was 25% and the “decline of LVEF” value ([4]; patient #4, 72% before chemotherapy to 60% after 300 mg/m2 DOX) was over 15%. For the same molecule, the “LVEF decrease in comparison to the initial LVEF” value ([4]; two other patients) was 4-6%, the “LVEF drop in comparison to the initial LVEF” value ([4]; two patients) was 16% and the “patients with partial remission / objective remission” value ([5]; 4 patients with metastatic soft tissue sarcoma (STS), DOX preceded by monoHER 1500 mg/m^2) was “Three and 3 of the four”. The “effect on antitumour activity of DOX” value ([5]; STS patients) was “enhances the antitumour activity of DOX”, the Response on dox ([5]; patient 01, Breast cancer, total DOX 100 mg/m^2, monoHER 1500 mg/m^2 i.v. 60 min before every DOX) was “PD” and the Response on dox ([5]; patient 02, Adrenal cortical cancer, total DOX 150 mg/m^2, monoHER 1500 mg/m^2 i.v. 60 min before every DOX) was “PD”. The Response on dox ([5]; patient 03, Malignant peripheral nerve sheet tumor, total DOX 480 mg/m^2, monoHER 1500 mg/m^2 i.v. 60 min before every DOX) was “PR”, the Response on dox ([5]; patient 04, Malignant fibrous histiocytoma, total DOX 450 mg/m^2, monoHER 1500 mg/m^2 i.v. 60 min before every DOX) was “PR” and the Response on dox ([5]; patient 05, Breast cancer, total DOX 100 mg/m^2, monoHER 1500 mg/m^2 i.v. 60 min before every DOX) was “PD”. The Response on dox ([5]; patient 06, Breast cancer, total DOX 300 mg/m^2, monoHER 1500 mg/m^2 i.v. 60 min before every DOX) was “SD”, the Response on dox ([5]; patient 07, Malignant fibrous histiocytoma, total DOX 300 mg/m^2, DOX immediately after monoHER 1500 mg/m^2 i.v.) was “PR” and the Response on dox ([5]; patient 08, Malignant fibrous histiocytoma, total DOX 375 mg/m^2, DOX 2 h after monoHER 1500 mg/m^2 i.v.) was “SD”. For the same molecule, the “duration of partial remission” value ([5]; patient #3, then progressive disease) was “nine”, the “partial remission maintained, time after the start of chemotherapy” value ([5]; patient #4) was at least 30 months and the “partial remission maintained, time after the start of chemotherapy” value ([5]; patient #7) was at least 16 months. The “duration of stable disease” value ([5]; patient #8, continuing DOX up to cumulative dose of 495 mg/m^2) was “at least 7 months”, the “influence on the antitumor activity of doxorubicin” value ([6]; in vitro or in vivo) was “did not influence the antitumor activity of doxorubicin” and the “cardioprotection against doxorubicin-induced chronic cardiotoxicity” value ([6]; animals) was “dose-dependent cardioprotection”. For the same molecule, the “adverse events during monoHER infusion” value ([7]; 8 patients, sensation of fullness in stomach (one), itching in skin of neck (one), during each cycle) was “two patients reported adverse events”, the leucopenia ([7]; due to chemotherapy, recovered before the start of the next cycle) was “all patients developed leucopenia” and the “liver enzymes and serum creatinine” value ([7]; monoHER 1500 mg/m^2 plus DOX) was “No disturbances”. For the same molecule, the “Cmax and AUC” value ([8]; dose 1500 mg/m^2) was “comparable to those obtained in mice under protecting conditions”, the side effects ([8]; up to a dose of 1500 mg/m^2) was “No serious side effects were observed” and the “metabolites of monoHER” value [9] was “no metabolites of monoHER have been detected until now”.
